# From ChEMBL document CHEMBL1151317, “A new bromopyrrole alkaloid and the optical resolution of the racemate from the marine sponge homaxinella sp” (1998)
# System: P388
# Experiment: Cytotoxicity against mouse P388 cells
# Assay type: functional
# Conditions: read-out: ED50 (the source's name)
row,SMILES,EC50 [mg/L]
1,COCNC(=O)c1cc(Br)c(Br)[nH]1,21.5
2,COC(=O)CC1CNC(=O)c2cc(Br)c(Br)n21 (racemic),30
3,O=C1NCC(O)n2c1cc(Br)c2Br (racemic) [LONGAMIDE],> 100
